{"source": "patent US20260007634A1", "about": "“PHARMACEUTICAL COMPOSITIONS FOR THE TREATMENT OF ALLERGIC DISEASES” (KINKI UNIVERSITY, priority 2022, published 2026)", "key": {"[1]": {"tested_on": "B cells collected from mice", "assay": "BAFF-induced differentiation into mature B cells (IgM/IgD flow cytometry)", "format": "cell-based, mouse", "conditions": "100 ng/mL BAFF, 10 days, 100 μM mangiferin, 20 μM 1,3,5,6-tetrahydroxyxanthone, 10 μM others; for population IgM positive and IgD positive (mature B cells): control 0, BAFF only 45.6; for population IgM positive and IgD negative (immature B cells): control 0.529, BAFF only 42.3; for population IgM negative and IgD negative (pre-B cells): control 99.5, BAFF only 11.7", "protocol": "B cells collected from mice were cultured in RPMI 1640 medium for 1 day. Then, 100 μM mangiferin, 10 μM mangiferin 8a, 10 μM norathyriol, 20 μM 1,3,5,6-tetrahydroxyxanthone, 10 μM xanthohydrol, 10 μM α-mangostin, 10 μM of γ-mangostin were added to B cell, and after 1 day of culture, 100 ng/mL of BAFF was added, followed by 10 days of culture. After 10 days of culture, cells were stained with anti-IgM and anti-IgD antibodies, markers of B cells, and the expression of IgM and IgD was measured using BD LSRFortessa. Note that IgM negative and IgD negative indicates pre-B cells, IgM positive and IgD negative indicates immature B cells, and IgM positive and IgD positive indicates mature B cells."}, "[2]": {"tested_on": "B cells collected from mice", "assay": "BAFF-induced differentiation into plasma cells (CD138 flow cytometry)", "format": "cell-based, mouse", "conditions": "100 ng/mL BAFF, 10 days; 100 μM mangiferin, 20 μM 1,3,5,6-tetrahydroxyxanthone, 10 μM others; vs BAFF-added group", "protocol": "B cells collected from mice were cultured in RPMI 1640 medium for 1 day. Then, 100 μM mangiferin, 10 μM mangiferin 8a, 10 μM norathyriol, 20 μM 1,3,5,6-tetrahydroxyxanthone, 10 μM xanthohydrol, 10 μM α-mangostin, 10 μM of γ-mangostin were added to B cell, and after 1 day of culture, 100 ng/mL of BAFF was added, followed by 10 days of culture. After 10 days of culture, cells were stained with anti-CD138 antibody, a marker of plasma cells, and CD138 expression was measured using BD LSRFortessa.\nIn all figures, the horizontal axis represents the expression level of CD138 and the vertical axis represents the number of cells."}, "[3]": {"target": "T1, NIK (Mus musculus, UniProt Q9WUL6)", "T1 construct": "Proteins were extracted with cell lysate and used as samples; endogenous in cells; host or cells: primary splenic B cells from 6-week-old male Balb/c mice", "T1 sequence (Q9WUL6 whole entry)": "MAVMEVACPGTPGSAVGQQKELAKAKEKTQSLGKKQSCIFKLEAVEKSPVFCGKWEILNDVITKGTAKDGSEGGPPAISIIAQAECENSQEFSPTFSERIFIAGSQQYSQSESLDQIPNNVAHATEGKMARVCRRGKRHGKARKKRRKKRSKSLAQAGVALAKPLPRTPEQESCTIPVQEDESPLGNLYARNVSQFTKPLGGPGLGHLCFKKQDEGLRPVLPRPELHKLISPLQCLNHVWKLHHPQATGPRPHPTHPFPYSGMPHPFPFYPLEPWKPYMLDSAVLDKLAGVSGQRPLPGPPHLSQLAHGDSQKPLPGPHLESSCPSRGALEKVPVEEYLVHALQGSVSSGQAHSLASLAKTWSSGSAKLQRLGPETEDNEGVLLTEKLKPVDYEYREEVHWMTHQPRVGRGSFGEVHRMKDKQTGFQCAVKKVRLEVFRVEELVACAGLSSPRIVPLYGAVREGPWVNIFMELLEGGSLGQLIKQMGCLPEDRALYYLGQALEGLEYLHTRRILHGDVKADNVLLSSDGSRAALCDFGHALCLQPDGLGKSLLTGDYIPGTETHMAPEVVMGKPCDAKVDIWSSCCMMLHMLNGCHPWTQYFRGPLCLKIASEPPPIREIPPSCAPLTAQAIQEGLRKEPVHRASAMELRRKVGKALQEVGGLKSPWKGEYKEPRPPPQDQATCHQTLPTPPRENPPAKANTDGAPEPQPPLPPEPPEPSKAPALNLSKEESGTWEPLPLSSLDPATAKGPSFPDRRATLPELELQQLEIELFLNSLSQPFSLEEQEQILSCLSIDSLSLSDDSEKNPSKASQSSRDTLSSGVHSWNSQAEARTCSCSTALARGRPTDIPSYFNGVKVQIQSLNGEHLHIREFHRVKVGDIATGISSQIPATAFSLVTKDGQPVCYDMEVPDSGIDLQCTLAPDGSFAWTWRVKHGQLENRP", "assay": "BAFF-induced NIK activation in B cells (Western blotting, phospho-NIK)", "format": "cell-based", "conditions": "for phospho-NIK band (immunoblotting): 100 ng/mL BAFF 1 h after 23 h compound, 100 μM mangiferin, 20 μM 1,3,5,6-tetrahydroxyxanthone, 10 μM others; for inhibition of NIK activity compared with mangiferin: general statement in the description, referring to the examples", "protocol": "(§1) Spleens were harvested from 6-week-old male Balb/c mice and B cells were isolated. After isolation, the cells were seeded in […] dish and cultured in RPMI 1640 medium for 1 day and used as control. In addition, B cells were seeded into 100 mm^2 dish, and after 1 day of culture, 100 ng/mL BAFF was added and cultured for 1 h. Furthermore, B cells were seeded in […] dish, and after 1 day of culture, 100 μM mangiferin, 10 μM mangiferin 8a, 10 μM norathyriol, 20 μM 1,3,5,6-tetrahydroxyxanthone, 10 μM xanthohydrol, 10 μM of α-mangostin, and 10 μM of γ-mangostin were added to B cells, and after 23 h, 100 ng/mL BAFF was added to each, and the cells were incubated for 1 h. All were incubated at 37° C. and 5% CO2.\n(§2) Proteins were extracted with cell lysate and used as samples. Each sample was transferred to a PVDF membrane after SDSPAGE and assayed with anti-phospho-NIK, anti-NIK, anti-NF-κB p52, anti-NF-κB p65 and anti-Lamin antibodies.\n(§3) The antibody species is indicated in the vertical direction. Specifically, in the case of anti-phospho-NIK antibody (described as “Phospho-NIK”), anti-NIK antibody (described as “NIK”), anti-NF-κB p52 antibody (described as “NF-κB p52 nuclear”), anti-NF-κB p65 antibody (described as “NF-κB p65 nuclear”) and anti-Lamin antibody (described as “Lamin”)."}, "[4]": {"tested_on": "NF-κB p52", "assay": "BAFF-stimulated B cells, nuclear NF-κB p52 (Western blotting)", "format": "cell-based, mouse", "conditions": "vs 100 ng/mL BAFF; 100 μM mangiferin, 20 μM 1,3,5,6-tetrahydroxyxanthone, 10 μM others", "protocol": "as §1, §2, §3"}, "[5]": {"tested_on": "IgE antibody", "assay": "Serum IgE antibody ELISA, atopic dermatitis mice", "format": "in vivo, mouse", "conditions": "day 7, topical application, control 1214, vehicle (MC903) 2588", "protocol": "(§4) MC903 at 2 nM was applied to the right auricle of a 6-week-old male Balb/c (Japan SLC Inc.). Starting 8 h later, 5% norathyriol aqueous solution (1 mL of ethanol containing […] of norathyriol), betamethasone ointment, and delgocitinib ointment were applied to the auricle for 7 days. The measurement of auricular skin swelling was calculated by calipers. The day on which the first application of the compound was made was defined as day 0. Betamethasone and delgocitinib are currently in clinical use in atopic dermatitis and were used as control drugs in this example.\nSerum was collected from mice on day 7 in Example 1, and IgE antibody production was measured by enzyme-linked immunosorbent assay (ELISA). This assay was performed using a mouse IgE antibody ELISA kit (R&D)."}, "[6]": {"tested_on": "TSLP", "assay": "Auricular tissue TSLP ELISA, atopic dermatitis mice", "format": "in vivo, mouse", "conditions": "day 7, topical application, control 317, vehicle 1533", "protocol": "as §4\nThe mouse TSLP ELISA kit (R&D) was used for this measurement."}, "[7]": {"tested_on": "IL-4", "assay": "Auricular tissue IL-4 ELISA, atopic dermatitis mice", "format": "in vivo, mouse", "conditions": "day 7, topical application, control 56, vehicle 152", "protocol": "as §4\nThe mouse IL-4 ELISA kit (R&D) was used for this measurement."}, "[8]": {"tested_on": "IL-5", "assay": "Auricular tissue IL-5 ELISA, atopic dermatitis mice", "format": "in vivo, mouse", "conditions": "day 7, topical application, control 15, vehicle 32", "protocol": "as §4\nThe mouse IL-5 ELISA kit (R&D) was used for this measurement."}}, "data": [{"smiles": "O=c1c2ccc(O)c(O)c2oc2cc(O)cc(O)c12", "note": "[1,3,5,6-tetrahydroxyxanthone]", "values": [{"measurement": "population IgM positive and IgD positive (mature B cells)", "setting": "[1]", "result": 0, "unit": "%"}, {"measurement": "population IgM positive and IgD negative (immature B cells)", "setting": "[1]", "result": 2.92, "unit": "%"}, {"measurement": "population IgM negative and IgD negative (pre-B cells)", "setting": "[1]", "result": 96.5, "unit": "%"}, {"measurement": "CD138 expression", "setting": "[2]", "result": "significantly decreased CD138 expression"}, {"measurement": "phospho-NIK band (immunoblotting)", "setting": "[3]", "result": "fainter"}, {"measurement": "inhibition of NIK activity compared with mangiferin", "setting": "[3]", "result": "more inhibition of NIK activity than mangiferin"}, {"measurement": "nuclear NF-κB p52 band (immunoblotting)", "setting": "[4]", "result": "fainter"}]}, {"smiles": "C[C@H]1C[C@H]2[C@@H]3CCC4=CC(=O)C=C[C@]4(C)[C@@]3(F)[C@@H](O)C[C@]2(C)[C@@]1(O)C(=O)CO", "note": "[betamethasone]", "values": [{"measurement": "amount of IgE antibody", "setting": "[5]", "result": 1175, "unit": "ng/mL"}, {"measurement": "TSLP secretion", "setting": "[6]", "result": 651, "unit": "pg/mL"}, {"measurement": "IL-4 secretion", "setting": "[7]", "result": 45, "unit": "pg/mL"}, {"measurement": "IL-5 secretion", "setting": "[8]", "result": 8, "unit": "pg/mL"}]}, {"smiles": "C[C@H]1CN(C(=O)CC#N)[C@]12CCN(c1ncnc3[nH]ccc13)C2", "note": "[delgocitinib]", "values": [{"measurement": "amount of IgE antibody", "setting": "[5]", "result": 1812, "unit": "ng/mL"}, {"measurement": "TSLP secretion", "setting": "[6]", "result": 971, "unit": "pg/mL"}, {"measurement": "IL-4 secretion", "setting": "[7]", "result": 159, "unit": "pg/mL"}, {"measurement": "IL-5 secretion", "setting": "[8]", "result": 33, "unit": "pg/mL"}]}, {"smiles": "O=c1c2cc(O)c(O)cc2oc2cc(O)c([C@@H]3O[C@H](CO)[C@@H](O)[C@H](O)[C@H]3O)c(O)c12", "note": "[mangiferin]", "values": [{"measurement": "population IgM positive and IgD positive (mature B cells)", "setting": "[1]", "result": 0, "unit": "%"}, {"measurement": "population IgM positive and IgD negative (immature B cells)", "setting": "[1]", "result": 3.24, "unit": "%"}, {"measurement": "population IgM negative and IgD negative (pre-B cells)", "setting": "[1]", "result": 95.8, "unit": "%"}, {"measurement": "CD138 expression", "setting": "[2]", "result": "significantly decreased CD138 expression"}, {"measurement": "phospho-NIK band (immunoblotting)", "setting": "[3]", "result": "fainter"}, {"measurement": "nuclear NF-κB p52 band (immunoblotting)", "setting": "[4]", "result": "fainter"}]}, {"smiles": "OC1c2ccccc2Oc2ccccc21", "note": "[xanthohydrol]", "values": [{"measurement": "population IgM positive and IgD positive (mature B cells)", "setting": "[1]", "result": 0, "unit": "%"}, {"measurement": "population IgM positive and IgD negative (immature B cells)", "setting": "[1]", "result": 3.64, "unit": "%"}, {"measurement": "population IgM negative and IgD negative (pre-B cells)", "setting": "[1]", "result": 96.3, "unit": "%"}, {"measurement": "CD138 expression", "setting": "[2]", "result": "significantly decreased CD138 expression"}, {"measurement": "phospho-NIK band (immunoblotting)", "setting": "[3]", "result": "fainter"}, {"measurement": "inhibition of NIK activity compared with mangiferin", "setting": "[3]", "result": "more inhibition of NIK activity than mangiferin"}, {"measurement": "nuclear NF-κB p52 band (immunoblotting)", "setting": "[4]", "result": "fainter"}]}, {"smiles": "COc1c(O)cc2oc3cc(O)c(CC=C(C)C)c(O)c3c(=O)c2c1CC=C(C)C", "note": "[α-mangostin]", "values": [{"measurement": "population IgM positive and IgD positive (mature B cells)", "setting": "[1]", "result": 0.363, "unit": "%"}, {"measurement": "population IgM positive and IgD negative (immature B cells)", "setting": "[1]", "result": 21.2, "unit": "%"}, {"measurement": "population IgM negative and IgD negative (pre-B cells)", "setting": "[1]", "result": 78.1, "unit": "%"}, {"measurement": "CD138 expression", "setting": "[2]", "result": "significantly decreased CD138 expression"}, {"measurement": "phospho-NIK band (immunoblotting)", "setting": "[3]", "result": "fainter"}, {"measurement": "inhibition of NIK activity compared with mangiferin", "setting": "[3]", "result": "more inhibition of NIK activity than mangiferin"}, {"measurement": "nuclear NF-κB p52 band (immunoblotting)", "setting": "[4]", "result": "fainter"}]}, {"smiles": "CC(C)=CCc1c(O)cc2oc3cc(O)c(O)c(CC=C(C)C)c3c(=O)c2c1O", "note": "[γ-mangostin]", "values": [{"measurement": "population IgM positive and IgD positive (mature B cells)", "setting": "[1]", "result": 0.561, "unit": "%"}, {"measurement": "population IgM positive and IgD negative (immature B cells)", "setting": "[1]", "result": 19.7, "unit": "%"}, {"measurement": "population IgM negative and IgD negative (pre-B cells)", "setting": "[1]", "result": 79.7, "unit": "%"}, {"measurement": "CD138 expression", "setting": "[2]", "result": "significantly decreased CD138 expression"}, {"measurement": "phospho-NIK band (immunoblotting)", "setting": "[3]", "result": "fainter"}, {"measurement": "inhibition of NIK activity compared with mangiferin", "setting": "[3]", "result": "more inhibition of NIK activity than mangiferin"}, {"measurement": "nuclear NF-κB p52 band (immunoblotting)", "setting": "[4]", "result": "fainter"}]}]}
